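All cell lines were grown in 96-well plates and treated with compound for 48 hours. TGI denotes the concentration required for complete inhibition of growth.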
Tests used:
Test in all cases: growth of human tumour cells (NCI), 48 h
[1] = test system: RXF-631 renal
[2] = test system: DMS 114 small cell lung
[3] = test system: DMS 273 small cell lung
[4] = test system: DLD-1 colon
[5] = test system: LXFL 529 NSCLC
[6] = test system: XF 498 CNS

Row | Compound | TGI [1] [µM] | TGI [2] [µM] | TGI [3] [µM] | TGI [4] [µM] | TGI [5] [µM] | TGI [6] [µM]
1 | COC(=O)/C(=N\NC(N)=S)C(C(=O)OC)C(=O)C(=O)Nc1ccc(C)cc1 (centres undefined) | > 100 | > 100 | > 100 | > 100 | > 100 | > 100
2 | Cc1ccccc1C(=O)c1cc(O)ccc1O | > 100 | > 100 | > 100 | > 100 | > 100 | > 100
3 | COc1ccc2c(c1OCC(=O)O)C(=O)C(CCC(=O)O)CC2 (centres undefined) | > 100 | > 100 | > 100 | > 100 | > 100 | > 100
4 | O=C1CCC2(c3ccc(Cl)cc3)Nc3cc(Cl)ccc3N12 (centres undefined) | 28.9 | 21 | 22.3 | 20 | 24.6 | 15
5 | Cc1nc(Nc2ccc(Cl)cc2)sc1C(=O)NNC(=S)NN | 36.1 | 39 | 36.2 | 30.7 | 36.4 | 38.4
6 | O=C(CC1C(=O)Nc2ccccc2S1=O)Nc1cc(Cl)ccc1Cl (centres undefined) | > 100 | > 100 | > 100 | > 100 | > 100 | > 100
7 | COc1ccc(OCC(=O)O)c2c1CCCC2=O | > 100 | > 100 | > 100 | > 100 | > 100 | > 100
8 | Cc1ccc2nc(/C(=C/c3ccc(/C=C(\NC(=O)c4ccccc4)c4nc5ccc(C)cc5[nH]4)c(C)c3)NC(=O)c3ccccc3)[nH]c2c1 | 91.3 | 69.6 | > 100 | > 100 | 12.2 | 36.5
9 | CC1(C)COC(c2cccc3c2C(=O)c2cccc(Cl)c2-3)=N1 | > 100 | > 100 | > 100 | – | > 100 | > 100
10 | CCOC(=O)c1ccc(/C(C)=N/NC(N)=S)cc1 | > 100 | > 100 | > 100 | > 100 | > 100 | > 100

Source: PubChem BioAssay (NCI)
